Source: patent US11957759B1, “Rapidly accelerated fibrosarcoma (RAF) degrading compounds and associated methods of use” (Arvinas Operations, Inc., priority 2022, dated 2024)

Experiments:
[1] = molecular target: T1, B-RAF V600E (Homo sapiens, UniProt P15056, V600E); experiment: Target protein degradation, assay C: T-Rex 293 cells, HA-BRAF_V600E, 384 well format; format: cell-based; settings: T-Rex 293 HA-BRAF_V600E cells, 24 hours, Examples 83-269; for DC50: Assay C; for Dmax: T-REx-293, Assay C
T1 construct: expressed in transfected cells; host or cells: T-Rex 293 cells (Invitrogen #R71007)
T1 sequence (P15056 whole entry V600E): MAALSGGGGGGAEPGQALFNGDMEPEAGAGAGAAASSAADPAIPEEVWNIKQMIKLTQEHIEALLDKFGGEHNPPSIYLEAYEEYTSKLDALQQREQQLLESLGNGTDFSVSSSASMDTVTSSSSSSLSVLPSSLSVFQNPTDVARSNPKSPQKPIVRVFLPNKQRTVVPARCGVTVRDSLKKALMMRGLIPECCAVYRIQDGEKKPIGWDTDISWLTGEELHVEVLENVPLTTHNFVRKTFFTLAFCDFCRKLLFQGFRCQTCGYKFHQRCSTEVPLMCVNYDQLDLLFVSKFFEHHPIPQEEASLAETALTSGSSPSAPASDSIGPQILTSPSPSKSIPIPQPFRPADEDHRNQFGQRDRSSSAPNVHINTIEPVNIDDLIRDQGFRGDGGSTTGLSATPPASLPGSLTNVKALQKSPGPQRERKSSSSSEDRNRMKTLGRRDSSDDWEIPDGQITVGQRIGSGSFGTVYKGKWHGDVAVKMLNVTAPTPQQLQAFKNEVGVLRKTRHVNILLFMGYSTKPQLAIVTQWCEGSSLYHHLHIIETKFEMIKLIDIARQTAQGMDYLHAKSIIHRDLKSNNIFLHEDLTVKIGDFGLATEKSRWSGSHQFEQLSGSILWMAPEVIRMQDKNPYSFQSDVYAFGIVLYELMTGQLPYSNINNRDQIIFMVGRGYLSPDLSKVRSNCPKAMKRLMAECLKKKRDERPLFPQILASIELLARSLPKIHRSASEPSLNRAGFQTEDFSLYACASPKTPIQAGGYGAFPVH
Outline: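 After 24 h exposure to an 11-point 1:3 series (300 nM–5 pM, 0.5% DMSO), fixed T-Rex 293 cells carrying HA-BRAF V600E (induced with 1 ng/mL doxycycline) were stained anti-HA and imaged. DC50 and Dmax were derived from BRAF intensity relative to control, and cytotoxicity from nuclear counts.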

[2] = molecular target: T2, B-RAF G466V (Homo sapiens, UniProt P15056, G466V); experiment: Target protein degradation, assay D: T-Rex 293 cells, HA-BRAF_G466V, 384 well format; format: cell-based; settings: T-Rex 293 HA-BRAF_G466V cells, 24 hours, Examples 83-269; for DC50: Assay D; for Dmax: T-REx-293, Assay D
T2 construct: expressed in transfected cells; host or cells: T-Rex 293 cells (Invitrogen #R71007)
T2 sequence (P15056 whole entry G466V): as the sequence (P15056 whole entry V600E) above, with G466V, E600V counted along it
Outline: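 Degradation measured by high-content imaging of anti-HA immunofluorescence in fixed T-Rex 293 cells carrying inducible HA-BRAF G466V (1 ng/mL doxycycline), after 24 h PROTAC exposure at 37 °C over 300 nM–5 pM (1:3, 11 points, 0.5% DMSO). Outputs DC50 and Dmax as % of control; nuclei counts against DMSO wells gauge toxicity.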

Row | DC50 [1] | Dmax [1] | DC50 [2] | Dmax [2] | SMILES
1 | 50 to 500 nM | ≥ 70% | 1 to 10 nM | ≥ 70% | N#Cc1c(NS(=O)(=O)N2CC[C@@H](F)C2)ccc(F)c1Oc1ccc2ncn(-c3cccc(N4CCN(CC5CCN(c6ccc7c(c6)CN([C@H]6CCC(=O)NC6=O)C7=O)CC5)CC4)c3)c(=O)c2c1 [Example 239, (3R)-N-(2-cyano-3-{[3-(3-{4-[(1-{2-[(3S)-2,6-dioxopiperidin-3-yl]-1-oxo-2,3-dihydro-1H-isoindol-5-yl}piperidin-4-yl)methyl]piperazin-1-yl}phenyl)-4-oxo-3,4-dihydroquinazolin-6-yl]oxy}-4-fluorophenyl)-3-fluoropyrrolidine-1-sulfonamide]
2 | 5 to 50 nM | 35 to 70% | 1 to 10 nM | 35 to 70% | N#Cc1c(NS(=O)(=O)N2CC[C@@H](F)C2)ccc(F)c1Oc1ccc2ncn(-c3ccc(N4CCC(CN5CCC6(CC5)CCN(c5ccc7c(c5)C(=O)N(C5CCC(=O)NC5=O)C7=O)CC6)CC4)nc3)c(=O)c2c1 (stereo partly drawn) [Example 146, (3R)-N-{2-cyano-3-[(3-{6-[4-({9-[2-(2,6-dioxopiperidin-3-yl)-1,3-dioxo-2,3-dihydro-1H-isoindol-5-yl]-3,9-diazaspiro[5.5]undecan-3-yl}methyl)piperidin-1-yl]pyridin-3-yl}-4-oxo-3,4-dihydroquinazolin-6-yl)oxy]-4-fluorophenyl}-3-fluoropyrrolidine-1-sulfonamide]
3 | 50 to 500 nM | 35 to 70% | 1 to 10 nM | 35 to 70% | N#Cc1c(NS(=O)(=O)N2CC[C@@H](F)C2)ccc(F)c1Oc1ccc2ncn(-c3cnc(N4CCC(CN5CC6(C5)CN(c5ccc7c(c5)C(=O)N(C5CCC(=O)NC5=O)C7=O)C6)CC4)nc3)c(=O)c2c1 (stereo partly drawn) [Example 133, (3R)-N-{2-cyano-3-[(3-{2-[4-({6-[2-(2,6-dioxopiperidin-3-yl)-1,3-dioxo-2,3-dihydro-1H-isoindol-5-yl]-2,6-diazaspiro[3.3]heptan-2-yl}methyl)piperidin-1-yl]pyrimidin-5-yl}-4-oxo-3,4-dihydroquinazolin-6-yl)oxy]-4-fluorophenyl}-3-fluoropyrrolidine-1-sulfonamide]
4 | 50 to 500 nM | ≥ 70% | 1 to 10 nM | ≤ 35% | N#Cc1c(NS(=O)(=O)N2CC[C@@H](F)C2)ccc(F)c1Oc1ccc2ncn(-c3ccc(N4CCC(CN5CCC(c6ccc([C@H]7CCC(=O)NC7=O)cc6F)CC5)CC4)cc3)c(=O)c2c1 [Example 187, (3R)-N-(2-cyano-3-{[3-(4-{4-[(4-{4-[(3R)-2,6-dioxopiperidin-3-yl]-2-fluorophenyl}piperidin-1-yl)methyl]piperidin-1-yl}phenyl)-4-oxo-3,4-dihydroquinazolin-6-yl]oxy}-4-fluorophenyl)-3-fluoropyrrolidine-1-sulfonamide]
5 | 50 to 500 nM | 35 to 70% | 1 to 10 nM | 35 to 70% | N#Cc1c(NS(=O)(=O)N2CC[C@@H](F)C2)ccc(F)c1Oc1ccc2ncn(-c3cccc(N4CCN(CC5CCN(c6ccc7c(c6)CN(C6CCC(=O)NC6=O)C7=O)CC5)CC4)c3)c(=O)c2c1 (stereo partly drawn) [Example 90, (3R)-N-{2-cyano-3-[(3-{3-[4-({1-[2-(2,6-dioxopiperidin-3-yl)-1-oxo-2,3-dihydro-1H-isoindol-5-yl]piperidin-4-yl}methyl)piperazin-1-yl]phenyl}-4-oxo-3,4-dihydroquinazolin-6-yl)oxy]-4-fluorophenyl}-3-fluoropyrrolidine-1-sulfonamide]
6 | 50 to 500 nM | ≤ 35% | 1 to 10 nM | ≤ 35% | N#Cc1c(NS(=O)(=O)N2CC[C@@H](F)C2)ccc(F)c1Oc1ccc2ncn(-c3ccc(N4CC5(CN(CC6CCN(c7ccc8c(c7)C(=O)N(C7CCC(=O)NC7=O)C8=O)CC6)C5)C4)nc3)c(=O)c2c1 (stereo partly drawn) [Example 172, (3R)-N-{2-cyano-3-[(3-{6-[6-({1-[2-(2,6-dioxopiperidin-3-yl)-1,3-dioxo-2,3-dihydro-1H-isoindol-5-yl]piperidin-4-yl}methyl)-2,6-diazaspiro[3.3]heptan-2-yl]pyridin-3-yl}-4-oxo-3,4-dihydroquinazolin-6-yl)oxy]-4-fluorophenyl}-3-fluoropyrrolidine-1-sulfonamide]
7 | ≤ 5 nM | 35 to 70% | > 30 nM |  | N#Cc1c(NS(=O)(=O)N2CC[C@@H](F)C2)ccc(F)c1Oc1ccc2ncn(-c3ccc(N4CCN(c5ccc6c(c5)CN(C5CCC(=O)NC5=O)C6=O)CC4)nc3)c(=O)c2c1 (stereo partly drawn) [Example 143]
8 | 50 to 500 nM | 35 to 70% | 1 to 10 nM | 35 to 70% | N#Cc1c(NS(=O)(=O)N2CC[C@@H](F)C2)ccc(F)c1Oc1ccc2ncn(-c3ccc(N4CC(CN5CCC(c6ccc7c(c6)CN([C@H]6CCC(=O)NC6=O)C7=O)CC5)C4)cc3)c(=O)c2c1 [Example 189, (3R)-N-(2-cyano-3-{[3-(4-{3-[(4-{2-[(3S)-2,6-dioxopiperidin-3-yl]-1-oxo-2,3-dihydro-1H-isoindol-5-yl}piperidin-1-yl)methyl]azetidin-1-yl}phenyl)-4-oxo-3,4-dihydroquinazolin-6-yl]oxy}-4-fluorophenyl)-3-fluoropyrrolidine-1-sulfonamide]

Further lines, the compound ahead of its results:

Row | SMILES | DC50 [1] | Dmax [1] | DC50 [2] | Dmax [2]
9 | N#Cc1c(NS(=O)(=O)N2CC[C@@H](F)C2)ccc(F)c1Oc1ccc2ncn(-c3ccc(N4CCC(CN5CC(c6ccc7c(c6)CN(C6CCC(=O)NC6=O)C7=O)C5)CC4)cc3)c(=O)c2c1 (stereo partly drawn) [Example 101, (3R)-N-{2-cyano-3-[(3-{4-[4-({3-[2-(2,6-dioxopiperidin-3-yl)-1-oxo-2,3-dihydro-1H-isoindol-5-yl]azetidin-1-yl}methyl)piperidin-1-yl]phenyl}-4-oxo-3,4-dihydroquinazolin-6-yl)oxy]-4-fluorophenyl}-3-fluoropyrrolidine-1-sulfonamide] | 50 to 500 nM | 35 to 70% | 1 to 10 nM | 35 to 70%
10 | N#Cc1c(NS(=O)(=O)N2CC[C@@H](F)C2)ccc(F)c1Oc1ccc2ncn(-c3ccc(N4CC5(CCN(CC6CCN(c7ccc8c(c7)CN([C@@H]7CCC(=O)NC7=O)C8=O)CC6)CC5)C4)cc3)c(=O)c2c1 [Example 193, (3R)-N-(2-cyano-3-{[3-(4-{7-[(1-{2-[(3R)-2,6-dioxopiperidin-3-yl]-1-oxo-2,3-dihydro-1H-isoindol-5-yl}piperidin-4-yl)methyl]-2,7-diazaspiro[3.5]nonan-2-yl}phenyl)-4-oxo-3,4-dihydroquinazolin-6-yl]oxy}-4-fluorophenyl)-3-fluoropyrrolidine-1-sulfonamide] | 50 to 500 nM | 35 to 70% | 1 to 10 nM | 35 to 70%
11 | N#Cc1c(NS(=O)(=O)N2CC[C@@H](F)C2)ccc(F)c1Oc1ccc2ncn(-c3ccc(N4CC5(CCN(CC6CCN(c7ccc8c(c7)CN([C@H]7CCC(=O)NC7=O)C8=O)CC6)CC5)C4)cc3)c(=O)c2c1 [Example 192, (3R)-N-(2-cyano-3-{[3-(4-{7-[(1-{2-[(3S)-2,6-dioxopiperidin-3-yl]-1-oxo-2,3-dihydro-1H-isoindol-5-yl}piperidin-4-yl)methyl]-2,7-diazaspiro[3.5]nonan-2-yl}phenyl)-4-oxo-3,4-dihydroquinazolin-6-yl]oxy}-4-fluorophenyl)-3-fluoropyrrolidine-1-sulfonamide] | 50 to 500 nM | 35 to 70% | 1 to 10 nM | 35 to 70%
12 | N#Cc1c(NS(=O)(=O)N2CC[C@@H](F)C2)ccc(F)c1Oc1ccc2ncn(-c3cnc(C4(N5CCN(CC6CCN(c7ccc(NC8CCC(=O)NC8=O)cc7F)CC6)CC5)CC4)nc3)c(=O)c2c1 (stereo partly drawn) [Example 102, (3R)-N-[2-cyano-3-({3-[2-(1-{4-[(1-{4-[(2,6-dioxopiperidin-3-yl)amino]-2-fluorophenyl}piperidin-4-yl)methyl]piperazin-1-yl}cyclopropyl)pyrimidin-5-yl]-4-oxo-3,4-dihydroquinazolin-6-yl}oxy)-4-fluorophenyl]-3-fluoropyrrolidine-1-sulfonamide] | 50 to 500 nM | 35 to 70% | > 30 nM | 
13 | N#Cc1c(NS(=O)(=O)N2CC[C@@H](F)C2)ccc(F)c1Oc1ccc2ncn(-c3ccc(N4CCN(CC5CCN(c6ccc7c(c6)CN(C6CCC(=O)NC6=O)C7=O)CC5)CC4)nn3)c(=O)c2c1 (stereo partly drawn) [Example 92, (3R)-N-{2-cyano-3-[(3-{6-[4-({1-[2-(2,6-dioxopiperidin-3-yl)-1-oxo-2,3-dihydro-1H-isoindol-5-yl]piperidin-4-yl}methyl)piperazin-1-yl]pyridazin-3-yl}-4-oxo-3,4-dihydroquinazolin-6-yl)oxy]-4-fluorophenyl}-3-fluoropyrrolidine-1-sulfonamide] | 50 to 500 nM | ≤ 35% | 10 to 30 nM | ≤ 35%
14 | N#Cc1c(NS(=O)(=O)N2CC[C@@H](F)C2)ccc(F)c1Oc1ccc2ncn(-c3ccc(N4CC5(CC(CN6CCN(c7ccc8c(c7)CN([C@H]7CCC(=O)NC7=O)C8=O)CC6)C5)C4)cc3)c(=O)c2c1 [Example 191, (3R)-N-(2-cyano-3-{[3-(4-{6-[(4-{2-[(3S)-2,6-dioxopiperidin-3-yl]-1-oxo-2,3-dihydro-1H-isoindol-5-yl}piperazin-1-yl)methyl]-2-azaspiro[3.3]heptan-2-yl}phenyl)-4-oxo-3,4-dihydroquinazolin-6-yl]oxy}-4-fluorophenyl)-3-fluoropyrrolidine-1-sulfonamide] | 50 to 500 nM | 35 to 70% | 1 to 10 nM | 35 to 70%
